Tested on: rat PCA
Test: Passive Cutaneous Anaphylaxis (PCA) in rats
Type: in vivo, Male Wistar rats
Conditions: sc
Method: Serum containing heat-labile homocytotropic antibody was raised in rats to crystallized ovalbumin XOA by the method of Mota (I. Mota, Immunology, 7, 681, (1964)) using Bordettela pertussis vaccine as adjuvant.
Passive cutaneous anaphylaxis (PCA) was carried out by a method based on that of Ovary and Bier, (A. Ovary and O. G. Bier, Proc. Soc. Exp. Bio. Med 81, 584, (1952)) as modified by Goose and Blair. (Immunology 16, 749 (1969)).
Male Wistar rats of 250-300 g were give 0.1 ml of each of six twofold serial dilutions of pooled antiserum in 0.9% saline injected intradermally into separate sites on their shaved backs. Later (72 hours) the animals were challenged by intravenous injection of 0.3 ml of a 1% solution of ovalbumin in an isotonic solution of saline buffered with 0.05 M, pH 7.2, Sorenson Buffer (PBS), mixed with 0.2 ml of a 5% solution of Pontamine Sky Blue (6BX C.I. 24410, Raymond A. Lamb, London) in isotonic saline. The rats were killed after 20 minutes and the diameter of the blue wheals at the antibody injection sites were measured on the outer surface of the skin. The starting dilution of the serum was adjusted so that there was no response, after challenge, at the injection site of the highest dilution and a maximum response at the lowest dilutions. Typically six twofold serial dilutions of the serum from 1/4 to 1/128 were used.
Compounds were tested for their ability to reduce the diameter of the wheals at those intradermal sites which in control animals gave less than maximum response. Each dose of the compound was administered to six rats at a measured time prior to intravenous challenge with ovalbumin. Control groups of six rats were given the same volume (0.2 ml: 100 g^-1) of carrier fluid at the same time prior to the challenge.
The results were calculated as follows: % inhibition of PCA=100 (1-a/b) where a=the sum of the diameters of the wheals produced in the test animal at the sites of antibody dilutions as used in control groups and b=the mean sum of the diameters of the wheals produced in the control groups of animals at those antibody sites where at least five out of six of the animals gave less than maximum response. A typical variation in the control group of animals was SEM±6%.
*Time between administration of compound and antigen challenge.

## Cc1c(OS(C)(=O)=O)ccc2c(=O)c3[nH]nnc3oc12 [Example 1e, 6-Mesyloxy-5-methyl-9-oxo-1H,9H-benzopyran o[2,3-d]-v-triazole]
PBS with NaHCO3, 10' before antigen challenge, 5 mg/kg
  % inhibition of rat PCA: 42%
PBS with NaHCO3, 10' before antigen challenge, 20 mg/kg
  % inhibition of rat PCA: 57%
PBS with NaHCO3, 30' before antigen challenge, 5 mg/kg
  % inhibition of rat PCA: 18%
PBS with NaHCO3, 30' before antigen challenge, 20 mg/kg
  % inhibition of rat PCA: 41%

## Cc1c(O)ccc2c(=O)c3[nH]nnc3oc12 [Example 1f, 6-Hydroxy-5-methyl-9-oxo-1H,9H-benzopyrano[2,3-d]-v-triazole]
PBS with NaHCO3, 10' before antigen challenge, 10 mg/kg
  % inhibition of rat PCA: 32%
PBS with NaHCO3, 30' before antigen challenge, 10 mg/kg
  % inhibition of rat PCA: 19%

— patent US4454136A, “Substituted benzopyranotriazoles and antiallergic use” (Beecham Group Limited, priority 1980, dated 1984)
